Assay results as given in patent US20090035844A1, “Mechanical cell wounder device and related method” (HONG KONG BAPTIST UNIVERSITY, priority 2007, published 2009).

Test system: IEC-6 cells
Assay: Wounding assay: migration of IEC-6 cells after mechanical wounding (96-well plate)
Assay type: cell-based, rat
Procedure: After incubation in 10% FBS supplemented DMEM for 24 hours, the cells are starved in serum-free medium for another 24 hours. […] A cell denuded area is created by scratching the cell monolayer with the eight-channel mechanical wounder fitted with p-10 pipette tips (Axygen, T-300). To ensure even contact between the tips and the bottom of the well, the pins are calibrated by adjusting the hex screw with a hex wrench. With the help of the guiding-bar, the wounder is fixed onto the 96-well plate where each channel (pipette tip) is positioned at the same level in the eight wells of the same column. During wounding, the cell monolayer is scratched by moving the wounder from the left inner edge to the right inner edge of the wells where a sharp wound is formed along the diameter of each well. The wounding procedure is then repeated for all columns of a 96-well plate.
Photomicrographs of wounds are taken at time zero (501, 503, 505), 16 hours (511, 513, 515) and 24 hours (521, 523, 525) after wounding. Images at time zero are taken to record the initial width of the wounds and the recovery of the wounded monolayers due to cell migration towards the denuded area can be evaluated at 16 and 24 hours. The images are captured using an inverted phase-contract microscope such as a TMS Nikon with 4× objective, and the width of wound can quantified by the software such as Motic image plus 2.0 software of Motic Instruments. The migration of cells towards the wounds is expressed as a percentage of wound closure where % of wound closure=[(Wt=0−Wt=16 or 24)/Wt=0]×100% where Wt=0 is the width of wound measured immediately after scratching and Wt=16 or 24 is the width of wound measured 16 hours or 24 hours after scratching.

Compound | percentage of wound closure (16 hours after wounding, 5 mM DFMO in serum-free medium (control about 60%)) [%] | percentage of wound closure (24 hours after wounding, 5 mM DFMO in serum-free medium (control 76%)) | percentage of wound closure (24 hours after wounding, 20 ng/ml EGF in serum-free medium (control 76%)) [%]
NCCC[C@](N)(C(=O)O)C(F)F [DFMO, alpha-difluoromethylornithine] | 33 | around 50% | –
epithelial growth factor (NSDSECPLSHDGYCLHDGVCMYIEALDKYACNCVVGYIGERCQYRDLKWWELR; Epidermal growth factor; UniProt P01133 971-1023, looked up) [EGF, cell migration enhancer, used as the inducer of cell migration] | – | – | ~100
